Where two headings read alike, the source gives them in different places.
Tests used:
[1] = test system: P. putida KT2440; assay: microbe, parasite or virus in culture; format: cell-based
Experimental: Toxicity of the TC wastewater streams and toxic compounds present in FPS were evaluated in microplate growth assays performed in a Bioscreen C MBR analyzer (Growth Curves US, Piscataway, N.J.). Pre-cultures of the strains were prepared by inoculating 25 mL M9 medium supplemented with 20 mM glucose in a 125 mL baffled flask to an OD600 of 0.05-0.1 and incubating shaking at 225 rpm, 30° C. At mid log phase (OD600 0.5-1.0), cells were harvested by centrifugation at 13,000 rpm, and the cell pellets were washed twice and resuspended in M9 medium without a carbon source. These resuspended cells were used to inoculate microplate wells containing 200 μL of M9 medium supplemented with 20 mM glucose and various concentrations of TC wastewater streams or their components to OD600 0.1. Microplates were then incubated at 30° C. with maximum shaking and growth was measured by reading the absorbance (OD420-580) every 30 minutes. Growth rates were calculated according to the growth curve equation.
The compounds present in the FPF stream were classified according to chemical functionality, aldehydes, ketones, phenolics, or acids, and the growth rate of P. putida was evaluated against each class of compounds.

[2] = test system: GFP-expressing strain of P. putida KT2440; assay: GFP immunoblot of cell-free extract after GA or FPF treatment; format: cell-based, Pseudomonas putida; settings: GA (2 mM) or FPF (0.05% (v/v))
Text: Aldehydes, the key toxic component of the FPF stream, can confer molecular toxicity via protein damage. Indeed, GA, the major aldehyde present in FPF is a well-known post-translational protein-damaging agent. […] Cell-free extract from these conditions was immunoblotted to detect the presence of GFP. […] Furthermore, GFP inclusion bodies formed in cells treated with GA or FPF, which might be due to misfolding or cross-linking of the GFP protein. […] Thus, in an embodiment, overexpression of chaperones to rescue damaged or misfolded proteins was chosen as a strategy to enhance the tolerance of P. putida to FPF.
The fate of GFP in the LJ014 strain after treatment with FPF was then examined.

[3] = Pseudomonas putida, KT2440, effective concentration that decreases the growth rate by 50%, M9 medium with 20 mM glucose, 30° C., read-out: EC50
[4] = effective concentration that decreases the growth rate by 50%, M9 medium with 20 mM glucose, 30° C., read-out: EC50
[5] = Pseudomonas putida, KT2440, effective concentration that decreases the growth rate by 50%, M9 medium with 20 mM glucose, 30° C.

Row | EC50 [1, 3] | Structure (SMILES) | EC50 ([1]; Pseudomonas putida, KT2440) | also measured
1 | 2.52 mM | Cc1ccc(C)c(O)c1 [2,5-Xylenol] | – | –
2 | 7.77 mM | O=C1C=CCO1 [2-Butenolide] | – | –
3 | 5.02 mM | CC1=CCOC1=O [2-Methyl-butenolide] | – | –
4 | 27.8 mM | CCC(=O)CO [2-Oxobutanol] | – | –
5 | 13.9 mM | O=Cc1ccoc1 [3-Furancarboxaldehyde] | – | –
6 | 14.3 mM | O=Cc1ccc(CO)o1 [5-HMF, 5-(Hydroxymethyl)furfural] | – | –
7 | – | Cc1ccc(C=O)o1 [5-methylfufaral] | – | EC50 [1, 4]: 15 mM
8 | – | CC=O [Acetaldehyde] | 16.2 mM | –
9 | 64.1 mM | CC(=O)O [Acetic acid] | – | –
10 | – | CC(=O)CO [Acetol] | – | EC50 [1, 4]: 12.4 mM
11 | – | CC(C)=O [Acetone] | 39.3 mM | –
12 | – | C=CC(=O)O [Acrylic acid] | 11.7 mM | –
13 | – | O=C1CCCC1 [Adipic ketone] | – | EC50 [1, 4]: 9.8 mM
14 | 35.2 mM | CCCC(=O)O [Butanoic acid] | – | –
15 | – | Oc1ccccc1O [Catechol] | 42.4 mM | –
16 | – | C/C=C/C=O [Crotonaldehyde] | 17.4 mM | –
17 | – | C=O [Formaldehyde] | – | EC50 [1, 5]: ~2 mM; EC50 ([1]; effective concentration that decreases the growth rate by 50%, M9 medium with 20 mM glucose, 30° C.): 2.07 mM
18 | – | O=CC=O [Glyoxal] | 3.5 mM | –
19 | 13.3 mM | COc1ccccc1O [Guaiacol] | – | –
20 | – | CC(=O)CCO [Methylolacetone] | 28.8 mM | –
21 | – | Oc1ccccc1 [Phenol] | – | EC50 [1, 5]: 9.24 mM
22 | 22.4 mM | CCC(=O)O [Propionic acid] | – | –
23 | 4.21 mM | COc1cccc(OC)c1O [Syringol] | – | –
24 | 6.34 mM | COc1cc(C=O)ccc1O [Vanillin] | – | –
25 | – | Cc1cccc(O)c1 [m-Cresol] | 3.46 mM | –
26 | – | Cc1ccccc1O [o-Cresol] | 3.12 mM | –
27 | 2.25 mM | Cc1ccc(O)cc1 [p-Cresol] | – | –

Row | Structure (SMILES) | EC50 [1, 3] | EC50 ([1]; Pseudomonas putida, KT2440) | also measured
28 | O=Cc1ccco1 [Furfural] | 21 mM | – | –
29 | O=CCO [Glycolaldehyde] | ~2 mM | – | free-GFP level relative to the untreated controls [2]: 46.8%; EC50 [1, 4]: 2.14 mM
30 | C=C(CC(=O)O)C(=O)O [Itaconic acid] | 89.4 mM | – | –

Source: patent US10829731B2, “Biocatalysts for conversion of thermochemical waste streams” (Alliance for Sustainable Energy, LLC, priority 2018, dated 2020)
